According to patent publication US20100184815A1 (priority 2008, published 2010):
Like-named read-outs stand apart in the source and are kept apart here.

Tests used:
[1] = Metabolism studies using human liver microsomal preparations; type: in vitro ADME; settings: for HLMs Predominant Enzyme: comparison of half life with and without NADPH: Esterase, CYP or Mixed; for half-life: pH 7.4, read-out: HLMs t1/2; for half-life / HLMs t1/2 (min): pooled human liver microsomes, with NADPH (CYP system active), 37° C.
Experimental: Compounds were incubated in pooled human liver microsomes (HLMs) in the presence or absence of an NADPH-generating system. NADPH is required for the activity of cytochrome P450 (CYP) and other oxidative enzymes present in HLMs, but not for esterase activity. An additional incubation was carried out in the absence of HLM to assess compound stability. The disappearance of parent and the appearance of the corresponding acid metabolite were monitored over the time course of the incubations using LC-MS/MS.
A stock solution (20 mM) of each proprietary compound in DMSO was prepared and store at −20° C. until needed. A working stock solution (0.2 mM) was prepared for each proprietary compound by adding an aliquot of the stock solution (10 μL) to acetonitrile (990 μL).
An aliquot of the HLM solution was removed from the −80° C. freezer and placed on ice. Tris Buffer (50 mM, pH 7.4) containing MgCl2 (hexahydrate, 5 mM) was pre-incubated in a 37° C. water bath. A set of Eppendorf microfuge tubes (1.5 mL) was appropriately labeled. To each tube was added Tris buffer with or without the NADPH generating system. An aliquot of pooled HLMs was added to all the incubations except those that were the buffer control.
Tubes were preincubated for 5 min in a shaking incubator bath (37° C., 900 rpm) and the reaction was initiated by adding an aliquot of the proprietary working solution (5 μL). The additions were timed carefully in order to coordinate the sample collections below. A small aliquot (50 μL) was removed at […] and delivered to the respective tubes containing dextrorphan (100 μL of 0.5 μg/mL solution) in dissolved in methanol or acetonitrile. The samples were centrifuged at 14000 g for 15 minutes at 4° C. The supernatant was transferred to clean labeled HPLC injection vials and stored at −80° C. until analyzed. An aliquot of the supernatant […] was added to water (75 μL), mixed and injected onto the LC-MS/MS system for analysis.
“HLM t1/2” represents the observed half life of the compound under conditions that included NADPH, i.e., the CYP system was active. Comparison to the half life of the test article under (−)NADPH conditions, the enzyme predominant ly responsible for the metabolism of the test article. […] Where roughly equal metabolism is seen by each enzyme system, “mixed” is noted in the “Predominant enzyme” column.

pig liver esterase = experiment: Metabolism studies using pig liver esterase; type: in vitro ADME; settings: 37° C.
Experimental: The esterase-mediated metabolism of these compounds was studied using commercially available pig liver esterase in the presence and absence of human plasma proteins. The disappearance of parent was monitored over the time course of the incubations using a LC-UV detection system.
A stock solution and working stock solution was prepared for each proprietary compound as described for the human liver microsomal incubations. Working solutions of pig liver esterase in potassium phosphate buffer ([…], pH 7.4) and pig liver esterase in human plasma protein were prepared by dissolving pig liver esterase (2.51 mg) in the phosphate buffer or plasma protein solutions, respectively.
A set of three Eppendorf microfuge tubes (1.5 mL) was appropriately labeled. To each tube was added 1.5 mL of phosphate buffer, pig liver esterase in buffer, or pig liver esterase in human plasma protein solution. These solutions were pre-incubated (37° C., 900 rpm) and the reactions were initiated by adding an aliquot (37.5 μL) of the working solution of proprietary compound to each tube. An aliquot (100 μL) from each tube was removed at time 0, 5, 30, 60, and 120 min and added to a tube containing acetonitrile (200 μL) to stop the reaction.
The samples were centrifuged at 14000 g for 15 minutes at 4° C. The supernatant was transferred to clean labeled HPLC injection vials and stored at −80° C. until analyzed. An aliquot of the supernatant (25 μL) was injected onto the LC-UV system for analysis.
Half lives of a sample of test articles is noted in the following table. Half life was determined in the presence or absence of plasma.

Gal-4 hPPARβ/δ = molecular target: T1, Gal-4 hPPARβ/δ (Homo sapiens, UniProt Q03181); experiment: Gal4-hPPARδ transient transfection reporter assay in Cos cells; type: cell-based; settings: luciferase reporter, 24 hours with compound, scale 1-5, read-out: Gal-4 hPPAR β/δ EC50 (scaled number)
T1 construct: Plasmids pGal4-hPPARα, pGal4-hPPARγ, pGal4-hPPARδ and pG5-TK-pGL3 were constructed as previously described by Staels, Bart, et al., Nature 1998 Jun; 25
T1 sequence (Q03181 171-441 limits assumed): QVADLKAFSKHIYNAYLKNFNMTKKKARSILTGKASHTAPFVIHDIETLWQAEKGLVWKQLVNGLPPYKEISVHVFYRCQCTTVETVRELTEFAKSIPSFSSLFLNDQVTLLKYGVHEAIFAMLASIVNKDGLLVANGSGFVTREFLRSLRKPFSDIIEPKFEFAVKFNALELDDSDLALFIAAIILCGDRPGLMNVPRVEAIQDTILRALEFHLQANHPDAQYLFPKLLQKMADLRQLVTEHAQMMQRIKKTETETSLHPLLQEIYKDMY
How it was run: (§1)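 Cos cells transiently co-transfected with Gal4-hPPAR expression plasmid, pG5-TK-pGL3 luciferase reporter and β-galactosidase control, then treated 24 h with increasing compound concentrations in DMEM containing 0.2% FCS. Luciferase normalised to β-galactosidase; EC50 from curve fit, at least three experiments.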

Gal-4 hPPARα = molecular target: T2, Gal-4 hPPARα (Homo sapiens, UniProt Q07869); experiment: Gal4-hPPARα transient transfection reporter assay in Cos cells; type: cell-based; settings: luciferase reporter, 24 hours with compound, scale 1-5, read-out: Gal-4 hPPAR α EC50 (scaled number)
T2 construct: Plasmids pGal4-hPPARα, pGal4-hPPARγ, pGal4-hPPARδ and pG5-TK-pGL3 were constructed as previously described by Staels, Bart, et al., Nature 1998 Jun; 25
T2 sequence (Q07869 200-468 limits assumed): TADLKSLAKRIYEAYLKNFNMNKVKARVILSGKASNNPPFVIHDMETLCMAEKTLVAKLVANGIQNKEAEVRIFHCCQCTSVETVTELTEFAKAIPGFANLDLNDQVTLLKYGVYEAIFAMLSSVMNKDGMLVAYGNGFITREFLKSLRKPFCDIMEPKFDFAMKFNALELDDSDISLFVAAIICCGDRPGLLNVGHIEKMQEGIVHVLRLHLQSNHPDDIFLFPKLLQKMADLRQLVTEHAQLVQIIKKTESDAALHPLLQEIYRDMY
How it was run: as §1

Gal-4 hPPARγ = molecular target: T3, Gal-4 hPPARγ (Homo sapiens, UniProt P37231); experiment: Gal4-hPPARγ transient transfection reporter assay in Cos cells; type: cell-based; settings: luciferase reporter, 24 hours with compound, scale 1-5, read-out: Gal-4 hPPAR γ EC50 (scaled number)
T3 construct: Plasmids pGal4-hPPARα, pGal4-hPPARγ, pGal4-hPPARδ and pG5-TK-pGL3 were constructed as previously described by Staels, Bart, et al., Nature 1998 Jun; 25
T3 sequence (P37231 238-505 limits assumed): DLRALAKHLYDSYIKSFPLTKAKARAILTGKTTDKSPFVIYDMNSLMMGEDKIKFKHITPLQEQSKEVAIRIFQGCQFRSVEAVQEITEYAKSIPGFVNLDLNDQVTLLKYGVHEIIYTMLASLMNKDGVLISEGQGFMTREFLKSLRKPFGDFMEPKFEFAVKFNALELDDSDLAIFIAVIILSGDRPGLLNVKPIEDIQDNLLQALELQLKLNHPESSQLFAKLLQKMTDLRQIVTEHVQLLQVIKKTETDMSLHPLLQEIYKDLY
How it was run: as §1

[2] = pig liver esterase in human plasma protein solution, read-out: Pig Liver Esterase (t1/2 min.) (+) Plasma
[3] = pig liver esterase in phosphate buffer pH 7.4, no plasma, read-out: Pig Liver Esterase (t1/2 min.) (−) Plasma
[4] = pig liver esterase in human plasma protein solution

SMILES	HLMs Predominant Enzyme [1]	half-life [1] [min]	half-life at 4.9 µM (pig liver esterase; [2]) [min]	half-life at 4.9 µM (pig liver esterase; [3]) [min]	HLMs t1/2 (min) [1]	Pig Liver Esterase (t1/2 min.) (+) Plasma (pig liver esterase; [4])	EC50 (Gal-4 hPPARβ/δ) [nM]	EC50 (Gal-4 hPPARα) [nM]	EC50 (Gal-4 hPPARγ) [nM]
CCCn1nc(Cc2ccc(C)cc2)cc1COC(=O)c1ccc(OC(C)(C)C(=O)O)cc1 [Compound 54, 4-(1-Carboxy-1-methyl-ethoxy)-benzoic acid 5-(4-methyl-benzyl)-2-propyl-2H-pyrazol-3-ylmethyl ester]	Esterase	30	> 120	3					
CC(C)c1ccc(-n2nncc2COC(=O)c2ccc(SC(C)(C)C(=O)O)cc2)cc1 [Compound 59, 2-(4-(((1-(4-isopropylphenyl)-1H-1,2,3-triazol-5-yl)methoxy)carbonyl)phenylthio)-2-methylpropanoic acid]	Esterase	30	44	15					
Cc1ccc(Cn2nncc2COC(=O)c2ccc(OC(C)(C)C(=O)O)cc2)cc1 [Compound 63, 2-methyl-2-(4-(((1-(4-methylbenzyl)-1H-1,2,3-triazol-5-yl)methoxy)carbonyl)phenoxy)propanoic acid]	Stable			120	Stable	Stable			
C[C@@H](OC(=O)c1ccc(SC(C)(C)C(=O)O)cc1)c1cn(Cc2ccc(C(F)(F)F)cc2)nn1 [Compound 95, (R)-2-methyl-2-(4-((1-(1-(4-(trifluoromethyl)benzyl)-1H-1,2,3-triazol-4-yl)ethoxy)carbonyl)phenylthio)propanoic acid]			> 120	68	Stable		> 1000	1 to 50	> 1000
CCCn1c(COC(=O)c2ccc(OC(C)(C)C(=O)O)cc2)nn(Cc2ccc(C(=O)O[C@H](C)C(F)(F)C(F)(F)F)cc2)c1=O [Compound 174, (R)-2-methyl-2-(4-(((5-oxo-1-(4-((3,3,4,4,4-pentafluorobutan-2-yloxy)carbonyl)benzyl)-4-propyl-4,5-dihydro-1H-1,2,4-triazol-3-yl)methoxy)carbonyl)phenoxy)propanoic acid]	Esterase	10	17	< 5					
CCCn1c(C(C)OC(=O)c2ccc(SC(C)(C)C(=O)O)cc2)nn(Cc2ccc(C)cc2)c1=O (stereo not drawn) [Compound 199, 2-methyl-2-(4-((1-(1-(4-methylbenzyl)-5-oxo-4-propyl-4,5-dihydro-1H-1,2,4-triazol-3-yl)ethoxy)carbonyl)phenylthio)propanoic acid]			> 120	> 120	Stable		> 1000	1 to 50	> 1000
CCCn1c([C@H](C)OC(=O)c2ccc(SC(C)(C)C(=O)O)cc2)nn(Cc2ccc(C)cc2)c1=O [Compound 248, 4-(1-Carboxy-1-methyl-ethylsulfanyl)-benzoic acid (S)-1-[1-(4-methyl-benzyl)-5-oxo-4-propyl-4,5-dihydro-1H-1,2,4-triazol-3-yl]-ethyl ester]			> 120	> 120	Stable		> 1000	51 to 200	> 1000

More lines, now with the values ahead:

HLMs Predominant Enzyme [1]	half-life [1] [min]	half-life at 4.9 µM (pig liver esterase; [2]) [min]	half-life at 4.9 µM (pig liver esterase; [3]) [min]	HLMs t1/2 (min) [1]	Pig Liver Esterase (t1/2 min.) (+) Plasma (pig liver esterase; [4])	EC50 (Gal-4 hPPARβ/δ) [nM]	EC50 (Gal-4 hPPARα) [nM]	EC50 (Gal-4 hPPARγ) [nM]	SMILES
Esterase	5	16	< 1						CCCn1nc(Cc2ccc(C)cc2)cc1COC(=O)c1ccc(SC(C)(C)C(=O)O)cc1 [Compound 55, 4-(1-Carboxy-1-methyl-ethylsulfanyl)-benzoic acid 5-(4-methyl-benzyl)-2-propyl-2H-pyrazol-3-ylmethyl ester]
Mixed	73		77		Stable				C[C@@H](Cc1cn(Cc2ccc(C(F)(F)F)cc2)nn1)OC(=O)c1ccc(SC(C)(C)C(=O)O)cc1 [Compound 147, 4-(1-Carboxy-1-methyl-ethylsulfanyl)-benzoic acid (S)-1-methyl-2-[1-(4-trifluoromethyl-benzyl)-1H-1,2,3-triazol-4-yl]-ethyl ester]
		> 120	> 120	Stable		> 1000	1 to 50	> 1000	CCCn1c([C@@H](C)OC(=O)c2ccc(SC(C)(C)C(=O)O)cc2)nn(Cc2ccc(C)cc2)c1=O [Compound 249, 4-(1-Carboxy-1-methyl-ethylsulfanyl)-benzoic acid (R)-1-[1-(4-methyl-benzyl)-5-oxo-4-propyl-4,5-dihydro-1H-1,2,4-triazol-3-yl]-ethyl ester]
